Reference: article doi:10.1101/2024.08.13.607785v1 (biorxiv, 2024)
Where two headings read alike, the source gives them in different places.

Columns and labels:
Assay in all cases: biochemical
Design in all cases: species or system human cell line lysate
[1] = target: Mitogen-activated protein kinase 10 ; MAPK10 ; P53779 (Homo sapiens, UniProt P53779)
[2] = target: 1-phosphatidylinositol 3-phosphate 5-kinase ; PIKFYVE ; Q9Y2I7 (Homo sapiens, UniProt Q9Y2I7)
[3] = target: Phosphorylase b kinase gamma catalytic chain, liver/testis isoform ; PHKG2 ; P15735 (Homo sapiens, UniProt P15735)
[4] = target: Isoform Delta 12 of Calcium/calmodulin-dependent protein kinase type I ; CAMK2D ; Q13557-12 (Homo sapiens, UniProt Q13557)
[5] = target: Serine/threonine-protein kinase 4 ; STK4 ; Q13043 (Homo sapiens, UniProt Q13043)
[6] = target: Rho-associated protein kinase 1 ; ROCK1 ; Q13464 (Homo sapiens, UniProt Q13464)
[7] = target: Dual specificity protein kinase CLK1 ; CLK1 ; P49759 (Homo sapiens, UniProt P49759)
[8] = target: Serine/threonine-protein kinase LMTK2 ; LMTK2 ; Q8IWU2 (Homo sapiens, UniProt Q8IWU2)
[9] = target: RAC-beta serine/threonine-protein kinase ; AKT2 ; P31751 (Homo sapiens, UniProt P31751)
[10] = target: Phosphatidylinositol 4,5-bisphosphate 3-kinase catalytic subunit delta ; PIK3CD ; O00329 (Homo sapiens, UniProt O00329)
[11] = target: Phosphoinositide 3-kinase regulatory subunit 4 ; PIK3R4 ; Q99570 (Homo sapiens, UniProt Q99570)
[12] = target: LIM domain kinase 2 ; LIMK2 ; P53671 (Homo sapiens, UniProt P53671)
[13] = target: Isoform 3 of Mitogen-activated protein kinase 8 ; MAPK8 ; P45983-3 (Homo sapiens, UniProt P45983)
[14] = target: Mitogen-activated protein kinase kinase kinase 2 ; MAP3K2 ; Q9Y2U5 (Homo sapiens, UniProt Q9Y2U5)
[15] = target: Serine/threonine-protein kinase N2 ; PKN2 ; Q16513 (Homo sapiens, UniProt Q16513)
[16] = target: Mitogen-activated protein kinase kinase kinase 3 ; MAP3K3 ; Q99759 (Homo sapiens, UniProt Q99759)
[17] = target: Ephrin type-B receptor 4 ; EPHB4 ; P54760 (Homo sapiens, UniProt P54760)
[18] = target: Isoform 5 of Aurora kinase B ; AURKB ; Q96GD4-5 (Homo sapiens, UniProt Q96GD4)
[19] = target: Serine/threonine-protein kinase mTOR ; MTOR ; P42345 (Homo sapiens, UniProt P42345)
[20] = target: Serine/threonine-protein kinase 3 ; STK3 ; Q13188 (Homo sapiens, UniProt Q13188)
[21] = target: Dual specificity mitogen-activated protein kinase kinase 6 ; MAP2K6 ; P52564 (Homo sapiens, UniProt P52564)
[22] = target: Serine/threonine-protein kinase Sgk3 ; SGK3 ; Q96BR1 (Homo sapiens, UniProt Q96BR1)
[23] = target: Serine/threonine-protein kinase 16 ; STK16 ; O75716 (Homo sapiens, UniProt O75716)
[24] = read-out: BAY-1143572 (10 µM) / %Intensity relative to DMSO
[25] = read-out: BAY-1251152 (10 µM) / %Intensity relative to DMSO

Chain of RAC-beta serine/threonine-protein kinase ; AKT2 ; P31751 (P31751 whole entry, one chain of several): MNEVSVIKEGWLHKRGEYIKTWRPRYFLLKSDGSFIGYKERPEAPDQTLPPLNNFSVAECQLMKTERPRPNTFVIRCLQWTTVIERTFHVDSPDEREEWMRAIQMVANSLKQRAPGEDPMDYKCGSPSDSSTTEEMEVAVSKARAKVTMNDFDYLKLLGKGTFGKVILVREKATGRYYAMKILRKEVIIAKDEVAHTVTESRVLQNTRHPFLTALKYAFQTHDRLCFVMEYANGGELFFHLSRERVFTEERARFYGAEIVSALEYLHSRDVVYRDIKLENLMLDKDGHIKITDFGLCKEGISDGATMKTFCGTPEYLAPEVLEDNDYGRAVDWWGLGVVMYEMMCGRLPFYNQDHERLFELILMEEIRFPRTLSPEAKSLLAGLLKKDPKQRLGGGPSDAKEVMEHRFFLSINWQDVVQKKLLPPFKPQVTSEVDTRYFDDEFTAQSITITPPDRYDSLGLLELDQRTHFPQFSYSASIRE
Chain of Ephrin type-B receptor 4 ; EPHB4 ; P54760 (P54760 whole entry, canonical isoform): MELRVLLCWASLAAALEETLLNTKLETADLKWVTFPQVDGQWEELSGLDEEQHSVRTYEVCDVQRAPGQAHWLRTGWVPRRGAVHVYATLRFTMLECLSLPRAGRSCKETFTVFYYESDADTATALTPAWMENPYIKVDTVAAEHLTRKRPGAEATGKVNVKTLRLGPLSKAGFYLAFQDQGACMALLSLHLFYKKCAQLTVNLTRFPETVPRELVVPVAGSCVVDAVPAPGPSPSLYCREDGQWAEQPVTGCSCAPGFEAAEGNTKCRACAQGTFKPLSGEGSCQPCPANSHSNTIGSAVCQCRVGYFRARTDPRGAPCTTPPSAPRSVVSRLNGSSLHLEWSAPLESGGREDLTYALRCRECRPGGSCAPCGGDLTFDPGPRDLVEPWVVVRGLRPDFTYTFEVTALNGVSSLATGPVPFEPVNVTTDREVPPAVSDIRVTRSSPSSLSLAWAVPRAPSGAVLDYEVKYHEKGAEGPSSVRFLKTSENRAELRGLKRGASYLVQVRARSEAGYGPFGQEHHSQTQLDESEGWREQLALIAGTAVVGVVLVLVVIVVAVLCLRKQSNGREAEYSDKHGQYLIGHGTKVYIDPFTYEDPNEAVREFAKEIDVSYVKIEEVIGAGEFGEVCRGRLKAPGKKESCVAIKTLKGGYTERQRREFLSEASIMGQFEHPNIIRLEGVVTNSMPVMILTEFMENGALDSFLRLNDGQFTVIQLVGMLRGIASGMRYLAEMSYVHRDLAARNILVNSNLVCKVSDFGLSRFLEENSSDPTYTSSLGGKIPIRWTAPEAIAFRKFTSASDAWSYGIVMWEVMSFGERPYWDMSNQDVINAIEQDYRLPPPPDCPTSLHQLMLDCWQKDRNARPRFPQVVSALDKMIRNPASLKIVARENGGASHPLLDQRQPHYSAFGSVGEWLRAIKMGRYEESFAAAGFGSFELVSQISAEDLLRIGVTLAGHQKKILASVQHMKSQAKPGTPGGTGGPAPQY
Chain of Mitogen-activated protein kinase kinase kinase 3 ; MAP3K3 ; Q99759 (Q99759 whole entry): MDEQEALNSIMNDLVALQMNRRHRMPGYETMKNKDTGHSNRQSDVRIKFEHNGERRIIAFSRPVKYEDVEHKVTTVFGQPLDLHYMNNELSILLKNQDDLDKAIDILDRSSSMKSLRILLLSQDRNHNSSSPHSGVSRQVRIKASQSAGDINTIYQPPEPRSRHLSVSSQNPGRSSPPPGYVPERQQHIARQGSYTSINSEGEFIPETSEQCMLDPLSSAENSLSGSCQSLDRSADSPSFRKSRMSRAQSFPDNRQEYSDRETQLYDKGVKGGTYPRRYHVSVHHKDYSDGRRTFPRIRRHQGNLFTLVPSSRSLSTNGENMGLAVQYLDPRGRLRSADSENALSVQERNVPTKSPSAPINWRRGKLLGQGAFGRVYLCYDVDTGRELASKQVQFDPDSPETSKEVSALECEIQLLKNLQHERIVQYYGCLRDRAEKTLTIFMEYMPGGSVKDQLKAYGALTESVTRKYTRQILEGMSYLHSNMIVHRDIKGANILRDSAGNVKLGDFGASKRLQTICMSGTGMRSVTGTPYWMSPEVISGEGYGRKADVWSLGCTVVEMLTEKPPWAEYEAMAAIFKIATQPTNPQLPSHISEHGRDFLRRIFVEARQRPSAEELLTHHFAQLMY
Chain of Dual specificity protein kinase CLK1 ; CLK1 ; P49759 (P49759 whole entry): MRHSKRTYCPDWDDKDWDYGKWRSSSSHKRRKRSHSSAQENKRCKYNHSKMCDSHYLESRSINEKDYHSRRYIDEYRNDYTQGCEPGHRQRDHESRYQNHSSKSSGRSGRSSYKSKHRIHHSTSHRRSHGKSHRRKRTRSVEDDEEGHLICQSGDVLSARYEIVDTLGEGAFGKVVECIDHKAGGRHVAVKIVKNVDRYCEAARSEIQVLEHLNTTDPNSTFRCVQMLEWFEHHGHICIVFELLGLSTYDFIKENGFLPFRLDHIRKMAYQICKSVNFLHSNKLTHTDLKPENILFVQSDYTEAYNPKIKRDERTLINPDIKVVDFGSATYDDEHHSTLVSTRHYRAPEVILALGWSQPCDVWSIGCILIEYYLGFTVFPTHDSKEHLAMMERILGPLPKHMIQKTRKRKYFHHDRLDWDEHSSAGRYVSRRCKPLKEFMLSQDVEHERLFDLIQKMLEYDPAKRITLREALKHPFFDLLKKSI
Chain of Isoform 3 of Mitogen-activated protein kinase 8 ; MAPK8 ; P45983-3 (P45983 whole entry, canonical isoform): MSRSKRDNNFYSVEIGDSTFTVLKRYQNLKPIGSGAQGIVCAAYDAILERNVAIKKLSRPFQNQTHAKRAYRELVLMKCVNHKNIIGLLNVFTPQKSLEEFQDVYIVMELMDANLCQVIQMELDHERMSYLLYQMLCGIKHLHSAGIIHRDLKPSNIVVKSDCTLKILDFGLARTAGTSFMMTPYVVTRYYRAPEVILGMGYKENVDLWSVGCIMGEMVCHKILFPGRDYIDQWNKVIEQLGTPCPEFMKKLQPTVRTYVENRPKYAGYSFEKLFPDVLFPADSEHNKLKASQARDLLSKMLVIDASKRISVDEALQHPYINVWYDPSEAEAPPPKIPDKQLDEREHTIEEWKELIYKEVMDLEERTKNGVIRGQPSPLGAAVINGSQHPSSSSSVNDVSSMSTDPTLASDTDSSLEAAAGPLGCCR
Chain of Dual specificity mitogen-activated protein kinase kinase 6 ; MAP2K6 ; P52564 (P52564 whole entry): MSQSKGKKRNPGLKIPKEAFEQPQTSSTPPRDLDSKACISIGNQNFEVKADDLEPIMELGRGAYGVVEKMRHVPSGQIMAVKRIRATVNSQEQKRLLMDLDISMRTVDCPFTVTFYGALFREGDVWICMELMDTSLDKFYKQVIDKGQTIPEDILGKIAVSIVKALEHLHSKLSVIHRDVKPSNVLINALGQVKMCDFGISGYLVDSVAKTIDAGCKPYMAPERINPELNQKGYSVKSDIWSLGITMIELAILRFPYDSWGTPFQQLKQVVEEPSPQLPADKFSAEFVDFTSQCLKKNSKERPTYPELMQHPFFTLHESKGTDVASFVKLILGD
Chain of Mitogen-activated protein kinase kinase kinase 2 ; MAP3K2 ; Q9Y2U5 (Q9Y2U5 whole entry): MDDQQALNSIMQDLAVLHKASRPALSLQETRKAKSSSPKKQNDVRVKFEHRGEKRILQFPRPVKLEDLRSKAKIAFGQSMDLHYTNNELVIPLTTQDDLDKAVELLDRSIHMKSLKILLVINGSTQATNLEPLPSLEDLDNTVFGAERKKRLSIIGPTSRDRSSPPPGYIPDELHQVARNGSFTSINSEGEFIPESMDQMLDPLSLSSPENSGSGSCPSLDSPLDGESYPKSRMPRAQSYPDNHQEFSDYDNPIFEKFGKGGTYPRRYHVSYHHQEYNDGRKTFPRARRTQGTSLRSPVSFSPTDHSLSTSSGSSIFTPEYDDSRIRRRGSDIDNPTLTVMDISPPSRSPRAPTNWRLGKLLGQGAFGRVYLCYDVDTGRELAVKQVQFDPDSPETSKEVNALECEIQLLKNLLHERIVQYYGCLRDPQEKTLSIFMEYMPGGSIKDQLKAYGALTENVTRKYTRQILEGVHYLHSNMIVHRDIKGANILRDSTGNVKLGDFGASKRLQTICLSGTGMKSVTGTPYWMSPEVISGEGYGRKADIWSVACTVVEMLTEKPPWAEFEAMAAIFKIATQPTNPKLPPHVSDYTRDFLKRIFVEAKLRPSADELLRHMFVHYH
Chain of Serine/threonine-protein kinase 3 ; STK3 ; Q13188 (Q13188 whole entry, one chain of several): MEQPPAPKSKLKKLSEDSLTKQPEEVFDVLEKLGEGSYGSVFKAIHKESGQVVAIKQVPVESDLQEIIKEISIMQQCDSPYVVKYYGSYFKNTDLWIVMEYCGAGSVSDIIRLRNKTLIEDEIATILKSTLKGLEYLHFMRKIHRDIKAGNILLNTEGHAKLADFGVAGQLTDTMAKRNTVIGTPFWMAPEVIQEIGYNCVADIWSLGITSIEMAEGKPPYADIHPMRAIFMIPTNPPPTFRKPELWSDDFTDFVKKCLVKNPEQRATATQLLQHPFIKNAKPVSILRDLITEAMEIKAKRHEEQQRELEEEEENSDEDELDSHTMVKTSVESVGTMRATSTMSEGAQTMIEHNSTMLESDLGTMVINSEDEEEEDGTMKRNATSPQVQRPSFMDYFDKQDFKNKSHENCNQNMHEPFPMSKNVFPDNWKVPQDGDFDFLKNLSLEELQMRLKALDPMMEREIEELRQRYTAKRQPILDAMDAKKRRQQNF
Chain of Mitogen-activated protein kinase 10 ; MAPK10 ; P53779 (P53779 whole entry): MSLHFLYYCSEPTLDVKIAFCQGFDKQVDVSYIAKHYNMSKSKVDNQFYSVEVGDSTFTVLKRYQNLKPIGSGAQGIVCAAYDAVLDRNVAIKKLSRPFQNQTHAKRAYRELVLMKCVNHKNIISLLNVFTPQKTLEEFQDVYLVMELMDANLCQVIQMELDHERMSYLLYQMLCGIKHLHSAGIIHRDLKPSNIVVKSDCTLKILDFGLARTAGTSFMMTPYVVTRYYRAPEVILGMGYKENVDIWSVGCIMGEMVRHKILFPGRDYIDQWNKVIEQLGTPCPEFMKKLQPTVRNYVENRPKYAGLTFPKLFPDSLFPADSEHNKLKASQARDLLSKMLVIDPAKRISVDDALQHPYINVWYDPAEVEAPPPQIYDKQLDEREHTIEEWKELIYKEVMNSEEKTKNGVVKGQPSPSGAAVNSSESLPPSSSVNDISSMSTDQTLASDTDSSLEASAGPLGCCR

In the case of `COc1cc(F)ccc1-c1ncnc(Nc2cccc(C[S@](C)(=N)=O)c2)n1` [BAY-1143572], the remaining activity at 10 µM [1, 24] is reported as 119%, the remaining activity at 10 µM [2, 24] is reported as 94.3% and the remaining activity at 10 µM [3, 24] is reported as 107%. For the same molecule, the remaining activity at 10 µM [4, 24] was 124%, the remaining activity at 10 µM [5, 24] was 108% and the remaining activity at 10 µM [6, 24] was 114%. It also gave a remaining activity at 10 µM [7, 24] of 116%, a remaining activity at 10 µM [8, 24] of 128% and a remaining activity at 10 µM [9, 24] of 117%. The remaining activity at 10 µM [10, 24] was 116%, the remaining activity at 10 µM [11, 24] was 101% and the remaining activity at 10 µM [12, 24] was 78%. For the same molecule, the remaining activity at 10 µM [13, 24] was 141%, the remaining activity at 10 µM [14, 24] was 106% and the remaining activity at 10 µM [15, 24] was 222%. For the same molecule, the remaining activity at 10 µM [16, 24] was 120%, the remaining activity at 10 µM [17, 24] was 94.1% and the remaining activity at 10 µM [18, 24] was 101%. The remaining activity at 10 µM [19, 24] was 98.9%, the remaining activity at 10 µM [20, 24] was 103% and the remaining activity at 10 µM [21, 24] was 142%. For the same molecule, the remaining activity at 10 µM [22, 24] was 148% and the remaining activity at 10 µM [23, 24] was 64.2%.
Work on `COc1cc(F)ccc1-c1cc(Nc2cc(CS(C)(=N)=O)ccn2)ncc1F` (stereo not shown) [BAY-1251152] yielded a remaining activity at 10 µM [1, 25] of 108%, a remaining activity at 10 µM [2, 25] of 102% and a remaining activity at 10 µM [3, 25] of 100%. For the same molecule, the remaining activity at 10 µM [4, 25] was 106%, the remaining activity at 10 µM [5, 25] was 94.2% and the remaining activity at 10 µM [6, 25] was 110%. For the same molecule, the remaining activity at 10 µM [7, 25] was 104%, the remaining activity at 10 µM [8, 25] was 126% and the remaining activity at 10 µM [9, 25] was 119%. For the same molecule, the remaining activity at 10 µM [10, 25] was 113%, the remaining activity at 10 µM [11, 25] was 107% and the remaining activity at 10 µM [12, 25] was 109%. The remaining activity at 10 µM [13, 25] was 128%, the remaining activity at 10 µM [14, 25] was 103% and the remaining activity at 10 µM [15, 25] was 222%. The remaining activity at 10 µM [16, 25] was 114%, the remaining activity at 10 µM [17, 25] was 100% and the remaining activity at 10 µM [18, 25] was 65%. It also gave a remaining activity at 10 µM [19, 25] of 103%, a remaining activity at 10 µM [20, 25] of 91.9% and a remaining activity at 10 µM [21, 25] of 123%. It also gave a remaining activity at 10 µM [22, 25] of 139% and a remaining activity at 10 µM [23, 25] of 61.5%.
